Patent US9511047B2, “Delphinidin for combating melanoma cells” (priority 2012, dated 2016)

Key:
A-375 cells [1] = test: Real-time cell analysis of cell number and proliferation, xCELLigence system (Examples 8 and 11); assay type: cell-based, human
[2] = system: human melanoma cell line A-375; test: Induction of apoptosis, sub-G1 peak method (Examples 6 and 9); assay type: cell-based; conditions: A-375, 24 hours; for Induction of apoptosis (sub-G1 peak): 10-3000 μg/ml delphinidin-SBE-β-CD or 15-120 μM delphinidin Cl, low and higher cell confluence (FIGS. 2a, 2b)
[3] = system: human melanoma cell line A-375; test: Cell viability test, WST-1 assay (Examples 7 and 10); assay type: cell-based; conditions: A-375, 24 hours; for Cell viability (WST-1 assay): 10-3000 μg/ml delphinidin-SBE-β-CD or 15-120 μM delphinidin Cl, low and higher cell confluence (FIGS. 3a, 3b)
[4] = Stability trials in aqueous solution, 0.9% NaCl, 37° C. (Example 5); assay type: physicochemical; conditions: 0.9% NaCl solution, dark
Procedure: To determine the delphinidin chloride content in the delphinidin-containing solutions, a reversed-phase HPLC method was used similar to the one already described above. The following reagents were used in this case: […] The solutions were prepared at room temperature and subsequently stored in the dark at 37° C. in closed vials. […] The table below gives the content determined as a percentage of the starting concentration stated above.

[5] = Solubility of delphinidin chloride in aqueous cyclodextrin solutions (Example 1); assay type: physicochemical; conditions: pure water, cyclodextrin concentration 0; stirred 30° C. 20 h in the dark, filtered 0.22 μm
A-375 cells [6] = test: Microscopic analysis of cell morphology after 24 hours of treatment; conditions: A-375, 24 hours of treatment, high concentrations (FIG. 4)
[7] = system: human dermal microvascular endothelial cells; test: Cell vitality, ATP luminescence assay, endothelial cells (Example 12); assay type: cell-based; conditions: 0.1-100 μM (0.1; 3.2; 100 μM); Day 1-Day 4 (FIG. 18)
Excerpt: The human dermal microvascular endothelial cells were obtained by the standard method known to those skilled in the art of Hewett and Murray (1993) [Hewett P. W. and Murray J. C. (1993) Immunomagnetic purification of human microvessel endothelial cells using Dynabeads coated monoclonal antibodies to PECAM-1. Eur J Cell Biol 62: 451-454; Hewett P. W. & Murray J. C. (1993) Human microvessel endothelial cells: Isolation, culture and characterization. In Vitro Cell Biol: 823-830].

| Molecule | Concentration at which similarly strong antiproliferative effects are seen (A-375 cells [1]; A-375, high and low cell confluence (FIGS. 7 and 8)) | Induction of apoptosis (sub-G1 peak) [2] | Cell viability (WST-1 assay) [3] | Delphinidin content as a percentage of the starting concentration ([4]; 0 h, start 1.584 mg/ml (complex) or 0.0216 mg/ml (delphinidin)) | Delphinidin content as a percentage of the starting concentration ([4]; 1 h) | Delphinidin content as a percentage of the starting concentration ([4]; 2 h) | Delphinidin content as a percentage of the starting concentration ([4]; 3 h) | Delphinidin content as a percentage of the starting concentration ([4]; 4 h) | Delphinidin chloride, solubility achievable [5] | Morphology of the cells under microscopic analysis (A-375 cells [6]) | Cytotoxic effects on endothelial cells (vitality) [7] | Intensification of TRAIL sensitivity (real-time cell monitoring) (A-375 cells [1]; A-375, high cell confluence, SBE-β-CD 30 or 1000 μg/ml with TRAIL 0.02 μg/ml (FIGS. 16 and 17)) | Induction of apoptosis (sub-G1 peak), Example 9 ([2]; complex partner as control (FIG. 11b)) | Cell vitality, Example 10 ([3]; complex partner as control (FIG. 12b)) |
| --- | --- | --- | --- | --- | --- | --- | --- | --- | --- | --- | --- | --- | --- | --- |
| Oc1cc(O)c2cc(O)c(-c3cc(O)c(O)c(O)c3)[o+]c2c1.[Cl-] [delphinidin Cl, delphinidin chloride] | 60 to 120 µM | significant dose-dependent induction of apoptosis | loss of vital cells with increasing dose | 100% | 8.3% | 6.5% | 5.6% | 5.1% | 70 µg/mL | become globular and/or detached | no significant cytotoxic effects | – | – | – |
| sulfobutyl ether β-cyclodextrin [SBE-β-CD] | – | no effect | no effect | – | – | – | – | – | – | – | – | No intensification of TRAIL sensitivity | at control level | at control level |
